According to US20250066310A1, “MULTI-SUBSTITUTED URACIL DERIVATIVE AND PREPARATION METHOD THEREFOR AND APPLICATION THEREOF” (HANGZHOU ADAMERCK PHARMLABS INC., priority 2021, published 2025):
Marks after values point to notes of the source that are not given here.

Tests used:
ICR mice = assay: Effect on in vivo bleeding time in mice (tail cut)
Experimental: A normal control group (blank), positive control group (clopidogrel) and experimental groups were set up with 10 ICR mice (male, weighed about 25 g) in each group. Animals in each group were administered the corresponding drug solution by oral gavage (i.g.) at 0.1 ml/10 g body weight, and the blank control group was given distilled water, once daily for 4 days. On the 4th day, 1 h after the administration of the drug, the animals were anesthetized by intraperitoneal injection of sodium barbiturate at a dose of about 50 mg/kg, and 20 min later, the tails of the mice were cut at a distance of 3 mm from the tip of the tail, and at regular intervals, absorbent paper was used to dip the blood at the severed tails until no blood exuded, which was recorded as the bleeding time, and the results of the experiment were shown in Table 2.
Calculation equation for prolongation of bleeding time: […]

[1] = tested on: mice injected with ellagic acid via the tail vein; assay: Effect on in vivo clotting time in mice (ellagic acid tail vein injection); details: Mus musculus, iv, 100 mg/kg i.g. for 4 days, ellagic acid i.v. 1 h after last dose, vs model group, read-out: Clotting time prolongation (%)
Experimental: The control and model groups were gavaged with distilled water, and the positive clopidogrel group, and the test substance group were gavaged orally (i.g.) with drug solution in a volume of 0.1 mL/10 g for 4 consecutive days. 1 h after the last administration, all groups were injected with 0.15 mL/10 g of 0.3% ellagic acid solution via tail vein injection except for the blank group which was injected with physiological saline: 0.1 ml/10 g. After 5 min, glass capillaries were used for blood collection through the retro-orbital venous plexus, and the appearance time of coagulation filaments was recorded by glass capillaries at 10-second intervals.
Calculation equation for prolongation of clotting time:
Prolongation of clotting time (%)=[(mean value of clotting time in blank or administered group/mean value of clotting time in model group)−1]×100%

[2] = tested on: rats with focal permanent cerebral ischemia (MCAO); assay: Focal permanent cerebral ischemic injury (MCAO), administration from 3 h post-ischemia; type: in vivo, SD rats
[3] = tested on: rats with myocardial ischemia-reperfusion injury; assay: Myocardial ischemia-reperfusion injury caused by coronary artery ligation in rats; type: in vivo; details: x ± s, n = 8
Experimental: Experimental Methods: A model of myocardial ischemia/reperfusion (MI/R) injury caused by coronary artery ligation was established in rats, and animals were grouped into high-dose (20 mg/kg), medium-dose (10 mg/kg), low-dose (5 mg/kg) of the test drug, clopidogrel (7.5 mg/kg), sham, and model groups. Equal volume of 0.5% CMC-Na was administered at 0.5 ml/100 g body weight in both sham and model groups. The drug was administered by gavage (i.g.) once a day for 5 consecutive days. Modeling was performed 30 min after the last administration, and after modeling, 8 successfully modeled rats were selected from each group for subsequent experiments. The sham group was placed a wire under the left anterior descending branch of the coronary artery according to the model preparation method without ligation, and the other groups were modeled according to the model preparation method. The effects of the test drugs on the cardiac infarction rate and the biochemical indexes of creatine kinase (CK), lactate dehydrogenase (LDH), malondialdehyde (MDA), and superoxide dismutase (SOD) in plasma were detected, and TTC staining of the heart was performed to detect the effects of the test drugs on the area of myocardial infarction in MI/R rats.

[4] = tested on: acute inflammatory response caused by ellagic acid (serum cytokines); assay: Antibody microarray detection of serum factors in ellagic acid model mice; type: in vivo, ICR mice; design: TNFa / IL-6 / IL-1b / IL-5 / IL-13 / IL-1α / IL-1β / IL-2 / IL-3 / IL-4 / IFNg / CD40: unit not given here
Experimental: Experimental methods: ICR male mice, weighed about 25 g, were randomly divided into four groups: normal group, ellagic acid model group, 1-1 group, and 1-22 group, with four mice in each group. Mice in 1-1 group and 1-22 group were given 1-1, 100 mg/kg and 1-22, 100 mg/kg by gavage once a day respectively. 1 h after the third administration, except for the normal control group, the other three groups of mice were injected into the tail vein with 0.10 mL/10 g of 0.3% ellagic acid saline solution, and 1 h after injection, whole blood was collected from each animal, and centrifuged (3,000 rpm/min) for 10 min after 30 min of standing, and then centrifuged to obtain the serum. The serum from each group of animal was mixed in an EP tube, transported at −80° C., and sent for antibody microarray detection.

[5] = 100 mg/kg i.g. once daily for 4 days
[6] = Table 16, pooled serum, 100 mg/kg by gavage
[7] = Table 17, pooled serum, 100 mg/kg by gavage
[8] = Table 18, pooled serum, 100 mg/kg by gavage
[9] = Table 19, pooled serum, 100 mg/kg by gavage

| Structure (SMILES) | Bleeding time prolongation (%) (ICR mice; [5]) | change in vivo at 100 mg/kg [1] | other results |
| --- | --- | --- | --- |
| Cc1cccc(C)c1OC(=O)CCNC(=O)CCNc1cc(=O)n(C)c(=O)n1Cc1cc(F)ccc1C#N [Compound 1-19] | −38.00% | 60.4% |  |
| CCOC(=O)CCNC(=O)CCNc1cc(=O)n(C)c(=O)n1Cc1ccccc1C#N [Compound 1-17] | −6.20% | 44.1% |  |
| CC1CCC(C(C)C)C(OC(=O)CCNC(=O)CCNc2cc(=O)n(C)c(=O)n2Cc2cc(F)ccc2C#N)C1 (centres unmarked) [Compound 1-16] | 11.00% | 38% |  |
| Cn1c(=O)cc(NCCC(=O)NCCC(=O)Oc2ccccc2)n(Cc2cc(F)ccc2C#N)c1=O [Compound 1-15] | −4.70% | 42% |  |
| Cn1c(=O)cc(NCCC(=O)NCCC(=O)Oc2ccccc2)n(Cc2ccccc2)c1=O [Compound 1-30] | −9.70% | 39.8% |  |
| CC(C)OC(=O)CCNC(=O)CCNc1cc(=O)n(C)c(=O)n1C [Compound 1-2] | 6.50% | 49.9% |  |
| CCOC(=O)CCNC(=O)CCNc1cc(=O)n(C2CCCC2)c(=O)n1C1CCCC1 [Compound 1-54] | 13.00% | 37.2% |  |
| Cn1c(NCCC(=O)NCCC(=O)OC2CCCCC2)cc(=O)n(C)c1=O [Compound 1-6] | 4.80% | 42.4% |  |
| Cn1c(NCCCCCC(=O)NCCCCCC(=O)O)cc(=O)n(C)c1=O [Compound 1-24] | 20.60% | 36.7% |  |
| Cn1c(NCCC(=O)NCCC(=O)OC2CC2)cc(=O)n(C)c1=O [Compound 1-5] | −13.60% | 41.9% |  |
| CCCCC1OC(=O)c2ccccc21 (centres unmarked) [Butylphthalide, butylphthalide, reference compound] |  |  | Number of survivors after 15 days animal ([2]; 60 mg/kg by gavage once a day, 15 enrolled): 7; Mortality (%) ([2]; 15-day, 60 mg/kg by gavage): 53.33%; Neurological function score on day 15 ([2]; Bederson's method, 60 mg/kg): 1.25; Weight on day 1 ([2]; mean body weight, 60 mg/kg): 281.00 g; Weight on day 5 ([2]; mean body weight, 60 mg/kg): 234.27 g; Weight on day 15 ([2]; mean body weight, 60 mg/kg): 276.75 g |
| CC(C)OC(=O)CCNC(=O)CCN(C)c1cc(=O)n(C)c(=O)n1Cc1cc(F)ccc1C#N [Compound 1-45] | 18.60% | 43.1% |  |
| CCOC(=O)CCNC(=O)CCNc1cc(=O)[nH]c(=N)[nH]1 [Compound 1-39] | 16.90% | 37.2% |  |
| CCOC(=O)CCNC(=O)CCNc1cc(=O)n(Cc2cccnc2)c(=O)n1Cc1cccnc1 [Compound 1-55] | −3.10% | 38.6% |  |
| CC(C)OC(=O)CCNC(=O)CCNc1cc(=O)n(C)c(=O)n1Cc1cccnc1 [Compound 1-27] | 23.50% | 39.5% |  |
| CC(C)OC(=O)CCNC(=O)CCNc1cc(=O)n(Cc2ccccc2)c(=O)n1Cc1ccccc1 [Compound 1-26] | −13.30% | 40.4% |  |
| CCOC(=O)CCNC(=O)[C@@H](Nc1cc(=O)n(C)c(=O)n1C)C(C)CC (some centres unmarked) [Compound 1-37] | 48.80% | 32.6% |  |
| CC(C)OC(=O)CCNC(=O)CCNc1cc(=O)n(Cc2cccnc2)c(=O)n1Cc1cccnc1 [Compound 1-34] | −2.10% | 53.5% |  |
| CCOC(=O)CCCCCNC(=O)CCCCCNc1cc(=O)n(C)c(=O)n1C [Compound 1-23] | −19.20% | 38.1% |  |
| CC1CCC(C(C)C)C(OC(=O)CCNC(=O)CCNc2cc(=O)n(C)c(=O)n2Cc2cccnc2)C1 (centres unmarked) [Compound 1-32] | −9.00% | 48.4% |  |
| CCOC(=O)CCCCCNC(=O)CCCCCNc1cc(=O)[nH]c(=O)[nH]1 [Compound 1-38] | 28.40% | 37.5% |  |
| Cc1cccc(C)c1OC(=O)CCNC(=O)CCNc1cc(=O)n(C)c(=S)n1C [Compound 1-11] | 20.60% | 39.3% |  |
| COC(=O)[C@H](c1ccccc1Cl)N1CCc2sccc2C1 [Clopidogrel, clopidogrel, reference compound] |  | 36.8% | Bleeding time prolongation (%) (ICR mice; 15 mg/kg i.g. once daily for 4 days): >579.89%; Cardiac infarction rate (%) ([3]; 7.5 mg/kg i.g. once a day for 5 days): 14.29 ± 6.82 %; Pathological Score ([3]; myocardium, 7.5 mg/kg i.g.): 1.88 ± 0.64; CK (U/mL) ([3]; plasma, 7.5 mg/kg i.g.): 0.32 ± 0.20 U/mL; LDH (U/L) ([3]; plasma, 7.5 mg/kg i.g.): 8522.72 ± 626.17 U/L; MDA ([3]; plasma, 7.5 mg/kg i.g.): 15.90 ± 1.37 nmol/mL; SOD (U/mL) ([3]; plasma, 7.5 mg/kg i.g.): 40.92 ± 1.67 U/mL |
| Cn1c(NCCC(=O)NCCC(=O)Oc2ccccc2)cc(=O)n(C)c1=O [Compound 1-7] | 15.10% | 41.7% |  |
| CCOC(=O)CCNC(=O)CCNc1cc(=O)n(C)c(=O)n1Cc1cc(F)ccc1C#N [Compound 1-18] | 13.30% | 42.9% |  |
| CCOC(=O)[C@H](NC(=O)CCNc1cc(=O)n(C)c(=O)n1C)C(C)C [Compound 1-42] | −13.40% | 41.4% |  |
| Cn1c(NCCC(=O)NCCC(=O)OC2CC3CCC2(C)C3(C)C)cc(=O)n(C)c1=O (centres unmarked) [Compound 1-4] | 16.40% | 39.7% |  |
| CC(C)OC(=O)CCNC(=O)CCNc1cc(=O)n(C)c(=O)n1Cc1cc(F)ccc1C#N [Compound 1-13] | 15.60% | 39.8% |  |
| CCOC(=O)CCNC(=O)[C@H](Nc1cc(=O)n(C)c(=O)n1C)C(C)CC (some centres unmarked) [Compound 1-22] | 19.83% | 40.7% | IL-6 [4, 6]: 10,273.27*; RANTES/ccl5 [4, 6]: 1,909.28*; TNFa [4, 6]: 290.22*; IL-1b ([4]; Table 16, pooled serum, 100 mg/kg by gavage once a day x3, 1 h after ellagic acid): 268.76*; IL-1α [4, 7]: 837.49*; IL-1β [4, 7]: 268.76*; IL-2 [4, 7]: 464.49; IL-3 [4, 7]: 872.26*; IL-4 [4, 7]: 961.11*; IL-5 [4, 7]: 227.55*; IL-6 [4, 7]: 10,273.27*; IL-13 [4, 7]: 620.73*; Eotaxin/CCL11 [4, 8]: 3,096.53*; MCP1/CCL2 [4, 8]: 2,231.63*; MIP-3a/CCL20 [4, 8]: 1,252.13*; RANTES/CCL5 [4, 8]: 1,909.28*; CD40 [4, 9]: 509.56*; IFNg [4, 9]: 218.11*; number of down-regulated differential proteins ([4]; interleukin factors (Table 17), compared with the model group): seven |
| CCOC(=O)CCCCNC(=O)CCCCNC(=O)CCCCNc1cc(=O)n(C)c(=O)n1C [Compound 1-48] | 26.40% | 38.6% |  |
